Experimental data from publication PMC6920980, “Encapsulation in Polymeric Nanoparticles Enhances the Enzymatic Stability and the Permeability of the GLP-1 Analog, Liraglutide, Across a Culture Model of Intestinal Permeability” (Pharmaceutics, 2019).

Tests used:
[1] = tested on: Caco-2 intestinal epithelial cells; experiment: Cell viability measurement by impedance; format: cell-based, human; details: PN159 3 µM; for cell impedance kinetics: Caco-2, 24-h long treatment, liraglutide 100 µM; for cell index values measured by impedance (cell viability): Caco-2, liraglutide 100 µM, Triton X-100 1 mg/mL, in culture medium, kinetics for 24 h and 1-h time point, 10 kHz, n = 6–12
Experimental: (§1) The Caco-2 intestinal epithelial cell line was purchased from ATCC (cat.no. HTB-37) at passage 60. The cells were grown, as previously reported, in Dulbecco’s modified Eagle’s medium (Gibco, Life Technologies, Carlsbad, CA, USA) supplemented with 10% fetal bovine serum (Pan-Biotech GmbH, Aidenbach, Germany) and 50 μg/mL gentamycin in a humidified incubator with 5% CO2 at 37 °C. All plastic surfaces were coated with 0.05% rat tail collagen in sterile distilled water before cell seeding in culture dishes and the medium was changed every 2 days.
(§2) The concentration of stock solutions for cell culture experiments were 1 mM for both the therapeutic peptide liraglutide and the PN159 peptide, which was used as a reference absorption enhancer. The working solutions were diluted in cell culture medium or Ringer-buffer depending on the experiments. The final concentration of liraglutide encapsulated in the PLGA NPs was 100 µM and was diluted directly before using. Liraglutide was examined at 100 µM, while PN159 was examined at 3 µM concentration both for cell viability and permeability.
Impedance was measured at 10 kHz by an RTCA SP instrument (RTCA-SP instrument, ACEA Biosciences, San Diego, CA, USA). We have successfully tested the cellular effects of peptides and pharmaceutical excipients by impedance kinetics. For background measurements, 50 μL cell culture medium was added to the wells. This was followed by seeding the cells at a density of 6 × 10^3 cells/well to 96-well plate with gold electrodes (E-plate 96, ACEA Biosciences) coated with collagen. Cells were cultured for 5 days in a CO2 incubator at 37 °C and monitored every 10 min until the end of experiments. Cells were treated at the beginning of the plateau phase of growth. Lira, Lira-loaded PLGA NPs, blank PLGA NPs (without cargo), Lira and PN159 solution, and PN159 peptide were diluted in cell culture medium and the effects were followed for 24 h. Triton X-100 detergent (1 mg/mL) was used as a reference compound to obtain total cell toxicity. Cell index was defined as Rn-Rb at each time point of measurement, where Rn is the cell–electrode impedance of the well when it contains cells and Rb is the background impedance of the well with the medium alone.

pancreatin = experiment: Enzymatic degradation study in pancreatin-containing simulated intestinal fluid SIF; format: in vitro ADME, porcine; details: SIF with pancreatin (10 g/L, USP), pH 6.8, 37 °C, 100 rpm, 500 μg Lira in 2 mL, HPLC-UV, triplicate
Experimental: Stability analysis in the presence of pepsin and pancreatin was conducted and compared between native Lira and Lira loaded in PLGA NPs. Five hundred micrograms of native Lira, or the amount of NPs containing an equivalent amount of Lira, were added to 2 mL of pepsin-containing simulated gastric fluid SGF (3.2 g pepsin, 2 g of sodium chloride, 7 mL HCl, mixed and diluted with water to 1 L, pH = 1.2) or pancreatin-containing simulated intestinal fluid SIF (10 g pancreatin, 6.8 g KH2PO4, mixed and adjusted with 0.2 N NaOH then diluted with water to 1 L, pH = 6.8) and incubated at 37 °C under stirring at a speed of 100 rpm. The SGF and SIF were prepared as per USP specifications (Test Solutions, United States Pharmacopeia 35, NF 30, 2012). The same methodology was followed to assess the native Lira stability in SGFsp and SIFsp. […] The samples were centrifuged at 16,500× g and 4 °C for 10 min and the supernatant was analyzed by HPLC to calculate the residual Lira. […] Lira recovery in the withdrawn samples was calculated using the following equation: Lira recovery% = (Remaining Lira amount/theoretical Lira amount) × 100
(§3) Lira was analyzed by a reversed phase HPLC (Agilent 1200, San Diego, CA, USA) method that was previously developed and validated in our lab. […]

[2] = tested on: Caco-2 epithelial cell layers; experiment: Permeability study on the Caco-2 model; format: in vitro ADME, human
Experimental: as §1, §2
(§4) Caco-2 cells were seeded onto Transwell inserts (polycarbonate membrane, 3 µm pore size, 1.12 cm^2 surface area; Corning Life Sciences, Tewksbury, MA, USA) and cultured for three weeks. […] Treatment solutions from both compartments were collected and the Lira level was detected by HPLC.
(§5) The apparent permeability coefficients (Papp) were calculated as described previously. […]
(§6) Recovery (mass balance) was calculated according to the equation: %Recovery=CfDV^D+CfAV^A/C0DV^D×100% where C0D and CfD are the initial and final concentrations of the compound in the donor compartment, respectively; […] is the final concentration in the acceptor compartment; and V^D and V^A are the volumes of the solutions in the donor and acceptor compartments.
as §3

[3] = Permeability study on the Caco-2 model; format: in vitro ADME, human; details: human; Caco-2 on Transwell (polycarbonate, 3 µm pore, 1.12 cm^2), 3 weeks culture, apical to basal, Ringer-buffer pH 7.4, donor 100 µM liraglutide (PN159 3 µM where present), 1 h, HPLC-UV 214 nm, mean, n = 4; read-out: apparent permeability coefficient (Papp) of liraglutide
Experimental: as §1, §2, §4, §5, §6, §3

Caco-2 epithelial cells = experiment: Immunostaining for junctional proteins ZO-1 and β-catenin; format: cell-based, human; details: Caco-2 on glass coverslips, 1 h treatment, Lira 100 µM, PN159 3 µM, confocal microscopy
Experimental: Aiming to investigate the morphological changes in interepithelial junctions, immunostaining for the junctional proteins, zonula occludens protein-1 (ZO-1) and β-catenin, was carried out. Cells were grown on glass coverslips (Menzel-Glaser, Braunschweig, Germany) at a density of 4 × 10^4 cells/coverslips for 4 days and treated with Lira (100 µM), Lira loaded in PLGA NPs, Lira and PN159 solution, and PN159 peptide (3 µM) solutions for 1 h. After the treatment, the coverslips were washed with phosphate buffer (PBS) and the cells were fixed with 3% paraformaldehyde solution for 15 min at room temperature and incubated in 0.2% TX-100 solution for permeabilization. The cells were blocked with 3% bovine serum albumin in PBS and incubated with the rabbit primary antibodies, anti-ZO-1 and anti-β-catenin, overnight. Incubation with secondary Cy3-labeled anti-rabbit antibody lasted for 1 h. Hoechst dye 33342 was used to stain the cell nuclei. After mounting the samples (Fluoromount-G; Southern Biotech, Birmingham, AL, USA), the staining was visualized by a Visitron spinning disk confocal system (Visitron Systems GmbH, Puchheim, Germany).

CCCCCCCCCCCCCCCC(=O)N[C@@H](CCC(=O)NCCCC[C@H](NC(=O)[C@H](C)NC(=O)[C@H](C)NC(=O)[C@H](CCC(N)=O)NC(=O)CNC(=O)[C@H](CCC(=O)O)NC(=O)[C@H](CC(C)C)NC(=O)[C@H](Cc1ccc(O)cc1)NC(=O)[C@H](CO)NC(=O)[C@H](CO)NC(=O)[C@@H](NC(=O)[C@H](CC(=O)O)NC(=O)[C@H](CO)NC(=O)[C@@H](NC(=O)[C@H](Cc1ccccc1)NC(=O)[C@@H](NC(=O)CNC(=O)[C@H](CCC(=O)O)NC(=O)[C@H](C)NC(=O)[C@@H](N)Cc1cnc[nH]1)[C@@H](C)O)[C@@H](C)O)C(C)C)C(=O)N[C@@H](CCC(=O)O)C(=O)N[C@@H](Cc1ccccc1)C(=O)N[C@H](C(=O)N[C@@H](C)C(=O)N[C@@H](Cc1c[nH]c2ccccc12)C(=O)N[C@@H](CC(C)C)C(=O)N[C@H](C(=O)N[C@@H](CCCNC(=N)N)C(=O)NCC(=O)N[C@@H](CCCNC(=N)N)C(=O)NCC(=O)O)C(C)C)[C@@H](C)CC)C(=O)O [Liraglutide]
cell impedance kinetics [1]: no decrease in cell impedance kinetics | cell index values measured by impedance (cell viability) [1]: did not change the cell index values | Lira recovery (pancreatin; 30 min incubation, mean ± SD): 9.2 ± 0.7% | Lira degradation (pancreatin; 1 h incubation): completely degraded | Recovery (%) Mean ± SD (mass balance) ([2]; after liraglutide permeability on Caco-2 cells, donor 100 µM liraglutide, Ringer-buffer pH 7.4, 1 h, HPLC, mean ± SD): 80.9 ± 1.6% | Papp A→B at 1 h, 100 µM [3]: 16 ×10⁻⁶ cm/s

CC(C)C[C@H](NC(=O)[C@H](C)NC(=O)[C@H](CCCCN)NC(=O)[C@H](CC(C)C)NC(=O)[C@H](C)NC(=O)[C@H](CC(C)C)NC(=O)[C@H](CCCCN)NC(=O)[C@H](CC(C)C)NC(=O)[C@H](C)NC(=O)[C@H](CC(C)C)NC(=O)[C@@H](N)CCCCN)C(=O)N[C@@H](CCCCN)C(=O)N[C@@H](C)C(=O)N[C@@H](C)C(=O)N[C@@H](CC(C)C)C(=O)N[C@@H](CCCCN)C(=O)N[C@@H](CC(C)C)C(=O)N[C@@H](C)C(N)=O [PN159 peptide]
cell impedance kinetics [1]: no decrease in cell impedance kinetics | cell index values measured by impedance (cell viability) [1]: did not change the cell index values | junctional morphology (ZO-1 and β-catenin immunostaining) (Caco-2 epithelial cells): visible change in the staining pattern of β-catenin

O=C1OC2(c3ccc(O)cc3Oc3cc(O)ccc32)c2ccccc21 [fluorescein]
Papp of marker molecule ([2]; Caco-2 monolayers, TEER 893 ± 135 Ω × cm^2 before the experiments): below 0.5 × 10^−6 cm/s

Triton X-100
cell index values measured by impedance (cell viability) [1]: impedance dropped to zero
